Measurements taken from patent publication US20070010459A1, “Application of asiatic acid and its derivatives to treat pulmonary fibrosis” (priority 2005, published 2007).

Tests used:
[1] = PK study: plasma asiaticoside and asiatic acid after intragastric asiaticoside; assay type: in vivo, SD rats; conditions: asiaticoside 100 mg/kg intragastric; 0.5-24 hours; LC/MS
Protocol: SD rats were given asiaticoside through intragastric administration at 100 mg/kg. The blood samples were taken 0.5, 1, 2, 4, 6, 9, 12 and 24 hours after administration respectively. Plasma samples were prepared and analyzed for asiaticoside and asiatic acid concentration by LC/MS or GC/MS respectively. […] The plasma concentration of asiatic acid peaked after 4-6 hours after administration.

SD rats [2] = test: Embryonic and fetus toxicity and teratogenicity test in SD rats; assay type: in vivo
Protocol: SD rats were given 120, 380 or 1200 mg/kg of asiaticoside respectively through intragastric administration for 10 consecutive days from day 6-15 of gestation. […] Nor there were any fetus anomalies or obform.

[3] = system: primary culture of mice fibroblast; test: bFGF-stimulated proliferation of primary fibroblast culture; assay type: cell-based; conditions: bFGF 0.5 g/ml; tested at 25, 12.5, 6.25, 3.125 or 1.56 μg
Protocol: Using bFGF (0.5 µg/ml), the proliferation of primary culture of mice fibroblast with the presence of asiaticoside or asiatic acid at 25, 12.5, 6.25, 3.125 or 1.56 μg respectively was assessed.

Beagle dogs [4] = test: Acute toxicity study in Beagle dogs; assay type: in vivo; conditions: single administration
Excerpt: Therefore the highest dosage was given to the animal. […] Food uptake and activity were normal in the observation period.

[5] = Pharmacokinetics, tissue distribution and excretion of asiaticoside; assay type: in vivo, rats; conditions: rats, asiaticoside gavage, highest dose (100 mg/kg)
Protocol: Three doses of asiaticoside (10, 33, 100 mg/kg) were gavaged to rats (n=6) and canines (n=4). After dosing, blood was sampled up to 120 or 216 hours in rats and canines respectively. Tissue distribution and excretion studies in rats were carried out with the highest dose.
The respective asiaticoside and asiatic acid in the same bio-matrix were detected by LC/MS/MS and GC/MS. Because the secondary peak resembled a plasma concentration-time profile in both rat and canine rather than conventional compartment fitting, statistical moment analysis was used in calculating pharmacokinetic parameters. […] In addition to the targeted organ, both asiaticoside and asiatic acid were distributed in some other organs, which could be the sign to expand clinical indications.

Beagle dogs [6] = test: Chronic toxicity study in Beagle dogs; assay type: in vivo
Protocol: Beagle dogs were given 18, 72 or 240 mg/kg asiaticoside respectively daily for 9 consecutive months along with a control group.

[7] = system: radiation pneumonia and subsequent pulmonary fibrosis induced by Cobalt-60 radiation; test: Pharmacodynamics of asiaticoside in radiation pneumonia induced by Cobalt-60 radiation; assay type: in vivo, rats; parameters: Type IV (collagen content comparison, serum ECM) / Laminin (serum ECM) / Hyaluronic Acid (serum ECM): unit not given here
Protocol: Radiation pneumonia and subsequent pulmonary fibrosis in rats was induced by Cobalt-60 radiation. The efficacies were assessed by the lung weight coefficient, HXP content, serum ECM measurement, CT scan and pathological examinations.

[8] = system: rats with pulmonary fibrosis induced by bleomycin; test: Pharmacodynamics of asiaticoside in rats with pulmonary fibrosis induced by bleomycin; assay type: in vivo
Protocol: The rats with lung fibrosis were induced by bleomycin through trachea administration and then treated with asiaticoside. […] The study regimen lasted for 28 days. The lung weight coefficient and hydroyproline (HXP) content were measured on day 2 and 8 after the formation of animal model. CT scan, pathology and serum ECM content measurements were conducted on day 14, 21 and 28 days respectively.

SD rats [9] = test: General reproductive toxicity study in rats; assay type: in vivo
Protocol: SD rats were intragastric administrated with 120, 380 or 1200 mg/kg of asiaticoside respectively. Male and female were given 4 weeks or two weeks of asiaticoside before combining the cages. The male ones were given 5 additional weeks of asiaticoside, while female ones were given the drug till the 15th day of gestation. […] Weight, contour, internal organs and skeleton of fetus were all normal.

[10] = asiaticoside, range over 3 doses (4, 12, 36 mg/kg)

Structure (SMILES): C[C@H]1[C@H](C)CC[C@]2(C(=O)O[C@@H]3O[C@H](CO[C@@H]4O[C@H](CO)[C@@H](O[C@@H]5O[C@H](C)[C@H](O)[C@@H](O)[C@H]5O)[C@H](O)[C@H]4O)[C@@H](O)[C@H](O)[C@H]3O)CC[C@]3(C)C(=CC[C@@H]4[C@@]5(C)C[C@@H](O)[C@H](O)[C@@](C)(CO)[C@@H]5CC[C@]43C)[C@H]12 [Asiaticoside, asiaticoside]
- Plasma concentration of asiaticoside [1]: only trace quantity
- Dose without embryonic and fetus toxicity as multiple of effective dose (6 mg/kg) in mice (SD rats [2]; 1.2 g/kg): 200 ×
- Incidence rate of enlargement of fetus pelvis renalis (SD rats [2]; 1.2 g/kg): increased, yet this was not statistically significant
- Embryonic and fetus toxicity (SD rats [2]; 120, 380 or 1200 mg/kg intragastric, day 6-15 of gestation): no embryonic and fetus toxicity
- Dose with no embryonic and fetus toxicity (SD rats [2]; intragastric, day 6-15 of gestation): 1200 mg/kg
- Inhibitory activity on fibroblast proliferation [3]: no apparent inhibitory activity
- Highest dose given, no toxicity observed (no acute LD50 could be measured) (Beagle dogs [4]): 10000 mg/kg
- Main excretion route [5]: feces, bile and urine
- Tissue accumulation [5]: no apparent tissue accumulation
- Nontoxic dose as multiple of proposed clinical dosage in human (Beagle dogs [6]; 240 mg/kg/d): 40 ×
- Nontoxic dose (Beagle dogs [6]; 9-month chronic toxicity study, 18, 72 or 240 mg/kg daily): 240 mg/kg/day
- Toxicity observations (behavior, activity, weight, mental state, excrement and urine) (Beagle dogs [6]; 18, 72 or 240 mg/kg daily for 9 consecutive months): no apparent toxicity
- HXP content ([7]; asiaticoside 4 mg/kg): 40.88 ± 9.77 mg/g
- Hyaluronic Acid (serum ECM) ([7]; asiaticoside 4 mg/kg): 259.01 ± 64.39
- Laminin (serum ECM) ([7]; asiaticoside 4 mg/kg): 39.21 ± 5.69
- Lung weight coefficient ([7]; asiaticoside 4 mg/kg): 0.42%
- PIIIP (collagen content comparison, serum ECM) ([7]; asiaticoside 4 mg/kg): 21.00 ± 9.50
- Type IV (collagen content comparison, serum ECM) ([7]; asiaticoside 4 mg/kg): 14.74 ± 4.03
- HXP content ([7]; asiaticoside 12 mg/kg): 32.78 ± 4.37 mg/g
- Hyaluronic Acid (serum ECM) ([7]; asiaticoside 12 mg/kg): 246.91 ± 33.2
- Laminin (serum ECM) ([7]; asiaticoside 12 mg/kg): 41.11 ± 9.15
- Lung weight coefficient ([7]; asiaticoside 12 mg/kg): 0.20%
- PIIIP (collagen content comparison, serum ECM) ([7]; asiaticoside 12 mg/kg): 18.84 ± 10.70
- Type IV (collagen content comparison, serum ECM) ([7]; asiaticoside 12 mg/kg): 11.97 ± 4.09
- HXP content ([7]; asiaticoside 36 mg/kg): 31.38 ± 4.75 mg/g
- Hyaluronic Acid (serum ECM) ([7]; asiaticoside 36 mg/kg): 220.64 ± 67.55
- Laminin (serum ECM) ([7]; asiaticoside 36 mg/kg): 48.29 ± 10.67
- Lung weight coefficient ([7]; asiaticoside 36 mg/kg): 0.34%
- PIIIP (collagen content comparison, serum ECM) ([7]; asiaticoside 36 mg/kg): 14.27 ± 10.40
- Type IV (collagen content comparison, serum ECM) ([7]; asiaticoside 36 mg/kg): 10.04 ± 5.69
- CT scan findings ([7]; high dose asiaticoside group): a few fibrotic streaks
- CT scan findings ([7]; low dose asiaticoside group): mild ground glass infiltration and atelectasis in the right lower lung
- CT scan findings ([7]; median dose asiaticoside group): mild ground glass infiltration and fibrotic streaks in the right lung
- Overall efficacy ([7]; pulmonary fibrosis induced by radiation): efficacious in treating pulmonary fibrosis induced by radiation to certain extent
- HXP content ([8]; asiaticoside 4 mg/kg, 28 days): 19.63 ± 3.91 mg/g
- Lung weight coefficient ([8]; asiaticoside 4 mg/kg, 28 days): 0.63%
- HXP content ([8]; asiaticoside 12 mg/kg, 28 days): 18.95 ± 7.00 mg/g
- Lung weight coefficient ([8]; asiaticoside 12 mg/kg, 28 days): 0.66%
- HXP content ([8]; asiaticoside 36 mg/kg, 28 days): 18.56 ± 3.98 mg/g
- Lung weight coefficient ([8]; asiaticoside 36 mg/kg, 28 days): 0.64%
- Pathology ([8]; asiaticoside 4, 12, 36 mg/kg): light fibroplasias in alveoli pulmonis diaphragm, light lymphocyte infiltration and compensatory emphysema
- CT scan findings ([8]; asiaticoside 4, 12, 36 mg/kg, not dose dependent): ground glass infiltration in the lung tissue was found, but was significantly less than in the model group
- Overall efficacy ([8]; asiaticoside 4, 12 and 36 mg/kg, 28 days): efficacious in preventing and treating lung fibrosis induced by bleomycin to certain extent
- ET-1 (cytokine content) [8, 10]: 229.62-241.60
- Hyaluronic Acid (serum ECM) [8, 10]: 112.66-312.28
- Laminin (serum ECM) [8, 10]: 43.83-55.75
- PIIIP (collagen content comparison, serum ECM) [8, 10]: 13.87-24.54
- TNF-α (cytokine content) [8, 10]: 5.20-6.49
- TNF-[…] (cytokine content) [8, 10]: 0.067-0.077
- Type IV (collagen content comparison, serum ECM) [8, 10]: 4.33-10.45
- Clinical observation in male and female animals (SD rats [9]; 1.2 g/kg): bleeding around apertura narium
- Reproductive toxicity (SD rats [9]; 120, 380 or 1200 mg/kg intragastric): no reproductive toxicity
